Test results: the NIST ThermoML archive (doi:10.1016/j.fluid.2011.01.013)
Numbers after ± are expanded uncertainties.

Assay: xn = mol fraction of the nth substance listed
Details: Gas, Oscillating disk viscometry

CCN(CC)CC [triethylamine] + CO
Details	viscosity [mPa·s]
296.97 K, Mass density=2.1808 kg/m3, x2 = 0.4998	0.007913 ± 0.00034
297.25 K, Mass density=0.6964 kg/m3, x2 = 0.4996	0.007853 ± 0.00034
298.22 K, Mass density=1.2804 kg/m3, x2 = 0.3322	0.007476 ± 0.00033
298.82 K, Mass density=0.6964 kg/m3, x2 = 0.4996	0.007887 ± 0.00034
298.92 K, Mass density=1.1039 kg/m3, x2 = 0.4982	0.007914 ± 0.00034
299.02 K, Mass density=0.6482 kg/m3, x2 = 0.4999	0.007865 ± 0.00034
310.39 K, Mass density=0.6964 kg/m3, x2 = 0.4996	0.008055 ± 0.00036
310.51 K, Mass density=2.1808 kg/m3, x2 = 0.4998	0.008259 ± 0.00035
310.56 K, Mass density=0.6482 kg/m3, x2 = 0.4999	0.008025 ± 0.00034
310.62 K, Mass density=1.1039 kg/m3, x2 = 0.4982	0.008147 ± 0.00034
310.75 K, Mass density=1.5253 kg/m3, x2 = 0.5035	0.008235 ± 0.00035
311.73 K, Mass density=1.2804 kg/m3, x2 = 0.3322	0.007712 ± 0.00033
324.1 K, Mass density=2.1808 kg/m3, x2 = 0.4998	0.008539 ± 0.00035
324.27 K, Mass density=1.2804 kg/m3, x2 = 0.3322	0.007852 ± 0.00034
324.64 K, Mass density=0.6964 kg/m3, x2 = 0.4996	0.008338 ± 0.00035
325.29 K, Mass density=1.1039 kg/m3, x2 = 0.4982	0.008337 ± 0.00035
325.44 K, Mass density=0.6482 kg/m3, x2 = 0.4999	0.008367 ± 0.00035
326.59 K, Mass density=1.5253 kg/m3, x2 = 0.5035	0.008476 ± 0.00035
337.6 K, Mass density=1.2804 kg/m3, x2 = 0.3322	0.008072 ± 0.00034
338.04 K, Mass density=1.5253 kg/m3, x2 = 0.5035	0.008626 ± 0.00036
338.18 K, Mass density=0.6482 kg/m3, x2 = 0.4999	0.008693 ± 0.00036
338.18 K, Mass density=1.1039 kg/m3, x2 = 0.4982	0.008632 ± 0.00036
338.37 K, Mass density=0.6964 kg/m3, x2 = 0.4996	0.008695 ± 0.00036
338.58 K, Mass density=2.1808 kg/m3, x2 = 0.4998	0.00869 ± 0.00036
352.3 K, Mass density=0.6964 kg/m3, x2 = 0.4996	0.009039 ± 0.00036
352.47 K, Mass density=0.6482 kg/m3, x2 = 0.4999	0.009053 ± 0.00037
352.57 K, Mass density=1.1039 kg/m3, x2 = 0.4982	0.009009 ± 0.00036
352.83 K, Mass density=2.1808 kg/m3, x2 = 0.4998	0.008949 ± 0.00036
352.91 K, Mass density=1.2804 kg/m3, x2 = 0.3322	0.008441 ± 0.00035
353.02 K, Mass density=1.5253 kg/m3, x2 = 0.5035	0.009026 ± 0.00036
365.7 K, Mass density=2.1808 kg/m3, x2 = 0.4998	0.009281 ± 0.00038
365.96 K, Mass density=1.5253 kg/m3, x2 = 0.5035	0.009349 ± 0.00037
366.02 K, Mass density=1.2804 kg/m3, x2 = 0.3322	0.008766 ± 0.00036
366.12 K, Mass density=1.5253 kg/m3, x2 = 0.5035	0.009363 ± 0.00037
366.13 K, Mass density=0.6482 kg/m3, x2 = 0.4999	0.009411 ± 0.00038
366.22 K, Mass density=1.2804 kg/m3, x2 = 0.3322	0.008747 ± 0.00036
366.24 K, Mass density=0.6964 kg/m3, x2 = 0.4996	0.009388 ± 0.00037
366.29 K, Mass density=1.1039 kg/m3, x2 = 0.4982	0.009353 ± 0.00037
366.41 K, Mass density=2.1808 kg/m3, x2 = 0.4998	0.009307 ± 0.00038
366.96 K, Mass density=0.6482 kg/m3, x2 = 0.4999	0.009415 ± 0.00038
367.89 K, Mass density=1.1039 kg/m3, x2 = 0.4982	0.009381 ± 0.00037
379.75 K, Mass density=1.2804 kg/m3, x2 = 0.3322	0.009075 ± 0.00037
380.83 K, Mass density=2.1808 kg/m3, x2 = 0.4998	0.009681 ± 0.00038
381.57 K, Mass density=0.6482 kg/m3, x2 = 0.4999	0.009793 ± 0.00038
381.81 K, Mass density=1.5253 kg/m3, x2 = 0.5035	0.00977 ± 0.00038
381.91 K, Mass density=1.1039 kg/m3, x2 = 0.4982	0.009758 ± 0.00038
383.76 K, Mass density=0.6964 kg/m3, x2 = 0.4996	0.009828 ± 0.00039
394.29 K, Mass density=2.1808 kg/m3, x2 = 0.4998	0.01004 ± 0.00039
394.84 K, Mass density=1.5253 kg/m3, x2 = 0.5035	0.01009 ± 0.00039
394.95 K, Mass density=0.6964 kg/m3, x2 = 0.4996	0.0101 ± 0.00039
394.98 K, Mass density=1.2804 kg/m3, x2 = 0.3322	0.009437 ± 0.00037
395.04 K, Mass density=0.6482 kg/m3, x2 = 0.4999	0.01012 ± 0.00039
395.34 K, Mass density=1.1039 kg/m3, x2 = 0.4982	0.01008 ± 0.00039
408.74 K, Mass density=1.2804 kg/m3, x2 = 0.3322	0.009753 ± 0.00038
409.01 K, Mass density=1.1039 kg/m3, x2 = 0.4982	0.01044 ± 0.0004
409.18 K, Mass density=2.1808 kg/m3, x2 = 0.4998	0.01042 ± 0.0004
409.61 K, Mass density=0.6482 kg/m3, x2 = 0.4999	0.0105 ± 0.0004
410.61 K, Mass density=1.5253 kg/m3, x2 = 0.5035	0.0105 ± 0.0004
410.75 K, Mass density=0.6964 kg/m3, x2 = 0.4996	0.01052 ± 0.0004
422.83 K, Mass density=1.2804 kg/m3, x2 = 0.3322	0.01008 ± 0.00039
423.21 K, Mass density=1.5253 kg/m3, x2 = 0.5035	0.01081 ± 0.00041
423.31 K, Mass density=0.6964 kg/m3, x2 = 0.4996	0.01083 ± 0.00041
423.64 K, Mass density=2.1808 kg/m3, x2 = 0.4998	0.01078 ± 0.00041
423.81 K, Mass density=1.1039 kg/m3, x2 = 0.4982	0.01081 ± 0.00041
425.55 K, Mass density=0.6482 kg/m3, x2 = 0.4999	0.01091 ± 0.00041
436.79 K, Mass density=1.5253 kg/m3, x2 = 0.5035	0.01116 ± 0.00041
436.89 K, Mass density=2.1808 kg/m3, x2 = 0.4998	0.01111 ± 0.00041
436.91 K, Mass density=0.6964 kg/m3, x2 = 0.4996	0.01117 ± 0.00042
437.47 K, Mass density=1.1039 kg/m3, x2 = 0.4982	0.01116 ± 0.00041
438.27 K, Mass density=0.6482 kg/m3, x2 = 0.4999	0.01122 ± 0.00042
441.21 K, Mass density=1.2804 kg/m3, x2 = 0.3322	0.01053 ± 0.0004
451.54 K, Mass density=1.2804 kg/m3, x2 = 0.3322	0.01076 ± 0.0004
451.6 K, Mass density=1.5253 kg/m3, x2 = 0.5035	0.01154 ± 0.00042
451.74 K, Mass density=1.1039 kg/m3, x2 = 0.4982	0.01151 ± 0.00042
452.02 K, Mass density=2.1808 kg/m3, x2 = 0.4998	0.01151 ± 0.00042
452.69 K, Mass density=0.6964 kg/m3, x2 = 0.4996	0.01157 ± 0.00043
453.25 K, Mass density=0.6482 kg/m3, x2 = 0.4999	0.01161 ± 0.00043
466.65 K, Mass density=2.1808 kg/m3, x2 = 0.4998	0.01188 ± 0.00043
466.76 K, Mass density=1.5253 kg/m3, x2 = 0.5035	0.01191 ± 0.00043
467.26 K, Mass density=1.1039 kg/m3, x2 = 0.4982	0.0119 ± 0.00043
467.4 K, Mass density=1.2804 kg/m3, x2 = 0.3322	0.01113 ± 0.00041
467.62 K, Mass density=0.6482 kg/m3, x2 = 0.4999	0.01197 ± 0.00043
480.98 K, Mass density=1.2804 kg/m3, x2 = 0.3322	0.01145 ± 0.00042
481.28 K, Mass density=1.1039 kg/m3, x2 = 0.4982	0.01225 ± 0.00044
481.51 K, Mass density=2.1808 kg/m3, x2 = 0.4998	0.01224 ± 0.00044
481.53 K, Mass density=0.6964 kg/m3, x2 = 0.4996	0.01229 ± 0.00044
482.14 K, Mass density=0.6482 kg/m3, x2 = 0.4999	0.01231 ± 0.00044
482.73 K, Mass density=1.5253 kg/m3, x2 = 0.5035	0.01229 ± 0.00044
494.94 K, Mass density=0.6964 kg/m3, x2 = 0.4996	0.01263 ± 0.00045
495.26 K, Mass density=1.2804 kg/m3, x2 = 0.3322	0.01179 ± 0.00043
495.28 K, Mass density=2.1808 kg/m3, x2 = 0.4998	0.0126 ± 0.00045
495.78 K, Mass density=1.5253 kg/m3, x2 = 0.5035	0.01264 ± 0.00045
496.37 K, Mass density=0.6482 kg/m3, x2 = 0.4999	0.01269 ± 0.00045
497.66 K, Mass density=1.1039 kg/m3, x2 = 0.4982	0.01267 ± 0.00045
